The values below come from ChEMBL document CHEMBL1137108, “Antiviral compounds from traditional Chinese medicines Galla Chinese as inhibitors of HCV NS3 protease” (Bioorg Med Chem Lett, 2004).

NS3, sequence (A3EZJ3 whole entry): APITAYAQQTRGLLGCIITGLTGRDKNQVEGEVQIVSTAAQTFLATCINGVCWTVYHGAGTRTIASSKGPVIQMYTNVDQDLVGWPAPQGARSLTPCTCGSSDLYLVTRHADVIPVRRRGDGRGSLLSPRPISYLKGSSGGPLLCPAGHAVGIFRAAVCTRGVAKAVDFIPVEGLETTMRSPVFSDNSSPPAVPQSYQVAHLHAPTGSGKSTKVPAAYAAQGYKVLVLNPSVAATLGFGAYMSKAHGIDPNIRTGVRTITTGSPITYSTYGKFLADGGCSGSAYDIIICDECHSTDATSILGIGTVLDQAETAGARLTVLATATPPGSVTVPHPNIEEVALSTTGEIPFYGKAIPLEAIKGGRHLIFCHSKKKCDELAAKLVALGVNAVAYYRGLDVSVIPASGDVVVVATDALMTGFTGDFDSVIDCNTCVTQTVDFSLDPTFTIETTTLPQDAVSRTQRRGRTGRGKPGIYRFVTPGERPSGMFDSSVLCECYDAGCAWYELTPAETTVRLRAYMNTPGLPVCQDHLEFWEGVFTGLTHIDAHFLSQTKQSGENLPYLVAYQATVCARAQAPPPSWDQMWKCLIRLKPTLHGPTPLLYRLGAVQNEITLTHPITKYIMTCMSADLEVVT

This assay concerns the target NS3 (Hepatitis C virus, UniProt A3EZJ3). The assay can be described thus: Inhibitory activity against Hepatitis C virus NS3 protease by ELISA. Set-up: species or system Hepacivirus hominis. In general terms: An ELISA detects its analyte on a solid surface through an enzyme-linked reagent.
`O=C(OC[C@H]1O[C@H](OC(=O)c2cc(O)c(O)c(O)c2)[C@H](OC(=O)c2cc(O)c(O)c(O)c2)[C@@H](OC(=O)c2cc(O)c(O)c(O)c2)[C@@H]1O)c1cc(O)c(O)c(O)c1`: the IC50 was determined as 0.75 µM. In turn, `O=C(OC[C@H]1O[C@@H](OC(=O)c2cc(O)c(O)c(O)c2)[C@H](OC(=O)c2cc(O)c(O)c(O)c2)[C@@H](O)[C@@H]1O)c1cc(O)c(O)c(O)c1` gave an IC50 of 1.89 µM. `O=C(OC[C@H]1O[C@@H](OC(=O)c2cc(O)c(O)c(O)c2)[C@H](OC(=O)c2cc(O)c(O)c(O)c2)[C@@H](OC(=O)c2cc(O)c(O)c(O)c2)[C@@H]1OC(=O)c1cc(O)c(O)c(O)c1)c1cc(O)c(O)c(O)c1` [PENTAGALLOYL GLUCOSE] returned an IC50 of 1.6 µM.

One may read the IC50 as the concentration at which inhibition is half-maximal. High values mean weaker potency in that assay, low ones greater potency in that assay.
